The nature of assay [1]: Screening for tannase activity (breakdown of methylgallate, Osawa and Walsh). The class given is biochemical. The arrangement: key to Tannase activity (positive or negative): +: Positive tannase activity is shown as a green to brown coloration of free gallic acid in the cell-suspension after prolonged exposure to oxygen in an alkaline condition. The settings on record: for Tannase activity (positive or negative): 24 h incubation with methylgallate at 37° C., visual colour; for Quantitative tannase activity (A440/A620): ratio of A440 after 24 h incubation with methylgallate and A620 of cell-suspension at start; for Tannase activity, in words: where comparative, versus Lactobacillus plantarum 299v. On the procedure:
The applied method to detect tannase activity has earlier been described by Osawa and Walsh (1993). The detecting principle is that the breakdown of the tannin, methylgallate, is measured by the following procedure:
The test bacterium is cultured anaerobically on MRSagar (Merck, Darmstadt, Germany) for 2 d at 37° C. and then the cells are harvested and suspended in 5 ml 0.9% (w/v) NaCl. The cell-suspension is centrifuged and the cells re-suspended in 10 ml 0.9% NaCl and the absorbance is measured at 620 nm (0.9% NaCl solution as standard). The cell-suspension is diluted until the absorbance is between 0.1 and 0.6 (spectrophotometer, Pharmacia LKB, Novaspec II). After centrifugation, the cells are re-suspended in 1 ml methylgallate-buffer (3.7 g/l methylgallate [Aldrich Chemical Company, Inc., Milwaukee, Wis., USA], 4.5 g/l NaH2PO4, pH=5.0 [sterile filtered]) and the tube is incubated at 37° C. for 24 h. One ml of NaHCO3-buffer (42 g NaHCO3 per litre, pH=8.6) is added and the solution is incubated for 1 h at room temperature, before measurement of the absorbance at 440 nm (NaHCO3-buffer as standard). The colour of the suspension is measured by visual determination.
The colour should be brown or green to be graded as positive tannase activity. A quantitative value of the tannase activity was obtained by the ratio between the absorbance of the cell-suspension (A620; amount of cells) at the start of the incubation with methylgallate versus the absorbance after the 24 h incubation with methylgallate (A440; coloration of free gallic acids after exposure to oxygen in an alkaline condition).

Assay [2] concerns human colonic carcinoma cell-line HT-29. The assay is described as follows: Adhesion to HT-29 cells. The class given is cell-based. To be noted: for Adhesion to HT-29 cells, in salt solution: HBSS, 30 minutes, mean of at least 40 cells; for Capacity to adhere to human colonic mucosa cells, in words: compared with Lactobacillus plantarum 299v. As to the method: In total 32 L. plantarum strains isolated from human mucosa were tested as to adherence to intestinal epithelial cells of human colonic carcinoma cell-line HT-29 with a mannose-specific binding (method as described by Wold, A, et al, Infection and Immunity, October 1988, p. 2531-2537). Cells of the human adenocarcinoma cell line HT-29 were cultured in Eagle's medium supplemented with 10% fetal calf serum, 2 mM L-glutamine and 50 ig/ml of gentamicin (Sigma Chemical Co., Saint Louis, Mo., USA). A few days after the cells had reached confluence they were detached with EDTA-containing buffer (0.54 mM), washed and suspended in Hank's balanced salt solution (HBSS) at 5×10^6/ml. The bacteria were harvested, washed and suspended in HBSS at 5×10^9/ml (2× an optical density of 1.5 at 597 nm). Cells, bacteria and HBSS were mixed in the ratio 1:1:3 and incubated with end-over-end rotation for 30 minutes at 4EC. The cells were washed once with ice cold PBS and fixed with neutral buffered formalin (Histofix, Histolab, Götebrog, Sweden). The number of bacteria attached to each of at least 40 cells was determined using interference contrast microscopy (500× magnification, Nicon Optophot, with interference contrast equipment, Bergström Instruments, Göteborg, Sweden) and the mean number of bacteria per cell was calculated.

For assay [3], the system named is ischemia/reperfusion injury. Nature of the assay: Lipid peroxidation after ischemia/reperfusion injury in mice (LPO-586 colorimetric assay). In kind it is in vivo, Balb/C mice. An excerpt:
Fifteen Balb/C mice were divided into five groups (3 mice per group) and fed different combinations of normal food, rose hip powder (rich in tannins) and the tannase positive strain Lactobacillus plantarum 299v. The constituents were mixed with some water to get a mushy consistency. Groups 1 and 2 were given normal mouse food, Group 3 got the normal food supplemented with rose hip powder (1.6 g per day), Group 4 got normal food supplemented with L. plantarum 299v (10^10 bacteria per dose) and Group 5 got normal food supplemented with both the rose hip powder and L. plantarum 299v. The mice were fed once a day for 6-8 days before inducing an ischemia/reperfusion injury. The injury was done according to the following dissection protocol: Mice were given 0.15 ml of Ketamine/Xylazine solution (7.85 mg/ml and 2.57 mg/ml, respectively) subcutaneously for anesthesia. […] 1.0 ml PBS was injected into the peritoneal cavity for fluid resuscitation. […]
Lipid peroxidation is a well-established mechanism of cellular injury and is used as an indicator of oxidative stress in cells and tissues. […] LPO-586™ is a colorimetric assay designed to quantify MDA and is based on the reaction of a chromogenic reagent, N-methyl-2-phenylindole with MDA at 45° C. One molecule of MDA reacts with two molecules of N-methyl-2-phenylindole to yield a stable chromophore with maximal absorbance at 586 nm.

Assay [4] has as its system Bacterial flora in caecum. The assay is described as follows: Bacterial flora in caecum after ischemia/reperfusion injury in mice (viable count). To be noted: caecum stool after ischemia/reperfusion. In kind it is in vivo, Balb/C mice. From the text:
Fifteen Balb/C mice were divided into five groups (3 mice per group) and fed different combinations of normal food, rose hip powder (rich in tannins) and the tannase positive strain Lactobacillus plantarum 299v. The constituents were mixed with some water to get a mushy consistency. Groups 1 and 2 were given normal mouse food, Group 3 got the normal food supplemented with rose hip powder (1.6 g per day), Group 4 got normal food supplemented with L. plantarum 299v (10^10 bacteria per dose) and Group 5 got normal food supplemented with both the rose hip powder and L. plantarum 299v. The mice were fed once a day for 6-8 days before inducing an ischemia/reperfusion injury. The injury was done according to the following dissection protocol: Mice were given 0.15 ml of Ketamine/Xylazine solution (7.85 mg/ml and 2.57 mg/ml, respectively) subcutaneously for anesthesia. […] 1.0 ml PBS was injected into the peritoneal cavity for fluid resuscitation. […] The abdomen was then closed using a running vicryl 3-0 suture. The animal was allowed to awake from anesthesia and was removed from the warming pad and placed back into the cage. After 4 h and 15 min, the animal was given anesthesia again and tissue and stool samples were obtained in the following order and placed in preweighed tubes: liver tissue, ilium mesentery tissue and cecum stool for bacteriological sampling, and cecum and ilium tissue for colorimetric assay for lipid peroxidaton, and cecum and ilium tissue for histological examination. The samples for bacteriological evaluation were weighed and placed in freezing media and frozen immediately at −70° C. Samples for colorimetric assay (LPO586) were rinsed in PBS, weighed, homogenized, aliquoted and then frozen immediately at −70° C.
Bacteriological evaluation was performed by viable count by anaerobic incubation (BBL Gas Pak Plus, Becton Dickinson and Company, Sparks, Md., USA) on Rogosa-agar (Merck, Darmstadt, Germany) at 37° C. for 3 d, VRBD-agar (Merck, Darmstadt, Germany) at 37° C. for 24 h and Brain heart infusion agar (BHI; Oxoid, Basingstoke, Hampshire, England) at 37° C. for 3 d. Viable count on BHI was also done aerobically.

Data on four substances can be found in patent USRE46718E1, “Compositions comprising Lactobacillus plantarum strains in combination with tannin and new Lactobacillus plantarum strains” (Probi AB, priority 2003, dated 2018).

Take “Lactobacillus plantarum 299v, DSM 9843 [Strain 299v]”: in assay [1], the “Tannase activity (positive or negative)” value was “+” and the “Quantitative tannase activity (A440/A620)” value was 6.2. In assay [2], the “Adhesion to HT-29 cells, in salt solution” value (shortened to “Adhesion … in salt solution”) is reported as 11.7 number of bacteria per cell and the “Adhesion to HT-29 cells, in presence of methyl-mannoside” value (from here on “Adhesion to HT-29 cells, in presence”) is 3.4 number of bacteria per cell. Besides, the “MDA (lipid peroxidation), in words” value in assay [3] (compared to the positive control (Group 2)) is “decreased the MDA”. Moreover, the “Malondialdehyde (MDA) per g colonic tissue [median-value]” value in assay [3] (mice fed once a day for 6-8 days before 30 min ischemia, sampled 4 h 15 min after reperfusion, Control B 6.3, uninjured 4.3) is recorded as 5.8. For the same substance, the “Median of viable count, Total aerobes” value in assay [4] (BHI agar aerobic) is listed as 4 × 10^9 CFU per a caecal content. The “Median of viable count, Total anaerobes” value in assay [4] (BHI agar anaerobic) was 3 × 10^9 CFU per a caecal content. Further, in assay [4] (Rogosa-agar), the “Median of viable count, Lactobacilli” value was 2 × 10^9 CFU per a caecal content. Moreover, the “Median of viable count, Enterobacteriaceae” value in assay [4] (VRBD-agar) was 3 × 10^3 CFU per a caecal content.
For “Lactobacillus plantarum HEAL 19, DSM 15313”, in assay [1], the “Tannase activity (positive or negative)” value was “+”; the “Quantitative tannase activity (A440/A620)” value is recorded as 7.4; the “Tannase activity, in words” value is “higher tannase activity”. Further, in assay [2], the “Adhesion … in salt solution” value is given as 23 number of bacteria per cell; the “Capacity to adhere to human colonic mucosa cells, in words” value (“Capacity to adhere” below) was “higher capacity to adhere”; the “Adhesion to HT-29 cells, in presence” value is 5.0 number of bacteria per cell.
For the substance “Lactobacillus plantarum HEAL 99, DSM 15316”, in assay [1], the “Tannase activity (positive or negative)” value was “+”; the “Quantitative tannase activity (A440/A620)” value amounted to 6.8; the “Tannase activity, in words” value is reported as “higher tannase activity”. Also, in assay [2], the “Adhesion … in salt solution” value is 20 number of bacteria per cell; the “Capacity to adhere” value is reported as “higher capacity to adhere”; the “Adhesion to HT-29 cells, in presence” value is 2.0 number of bacteria per cell.
Regarding “Lactobacillus plantarum HEAL 9, DSM 15312”, in assay [1], the “Tannase activity (positive or negative)” value is on record as “+”; the “Quantitative tannase activity (A440/A620)” value stood at 6.4; the “Tannase activity, in words” value is given as “higher tannase activity”. For the same substance, in assay [2], the “Adhesion … in salt solution” value is on record as 20 number of bacteria per cell; the “Capacity to adhere” value is reported as “higher capacity to adhere”; the “Adhesion to HT-29 cells, in presence” value was 2.1 number of bacteria per cell.
